Experimental data reported in ChEMBL document CHEMBL1201862, “PubChem BioAssay data set” (2004).
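Results reflect a 48-hour exposure of cells in 96-well plates to compound at five concentrations. GI50: concentration for 50% inhibition of growth.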 Activity calls are given as the source filed them. Rule as the data show it: active = GI50 up to about 1.1 µM and inactive = higher.

Key:
Assay in all cases: growth of human tumour cells (NCI), 48 h
SF-268 = system: SF-268
OVCAR-8 = system: OVCAR-8
HT-29 = system: HT-29
SF-295 = system: SF-295
NCI-H23 = system: NCI-H23
MDA-MB-435 = system: MDA-MB-435
NCI-H460 = system: NCI-H460
MDA-N = system: MDA-N
SNB-75 = system: SNB-75
IGROV-1 = system: IGROV-1
NCI/ADR-RES = system: NCI/ADR-RES
UO-31 = system: UO-31
MDA-MB-231 = system: MDA-MB-231
RPMI-8226 = system: RPMI-8226
SN12C = system: SN12C
PC-3 = system: PC-3
SK-MEL-2 = system: SK-MEL-2
SK-MEL-5 = system: SK-MEL-5
LOX IMVI = system: LOX IMVI
RXF 393 = system: RXF 393

SMILES | GI50 (SF-268) | GI50 (OVCAR-8) | GI50 (HT-29) | GI50 (SF-295) | GI50 (NCI-H23) | GI50 (MDA-MB-435) | GI50 (NCI-H460) | GI50 (MDA-N) | GI50 (SNB-75) | GI50 (IGROV-1) | GI50 (NCI/ADR-RES) | GI50 (UO-31) | GI50 (MDA-MB-231) | GI50 (RPMI-8226) | GI50 (SN12C) | GI50 (PC-3) | GI50 (SK-MEL-2) | GI50 (SK-MEL-5) | GI50 (LOX IMVI) | GI50 (RXF 393)
C=C=C(CC1CCCCC1=O)S(=O)(=O)c1ccccc1 (centres undefined) | > 10 µM (inactive) | > 9.46 µM (inactive) | > 10 µM (inactive) | > 10 µM (inactive) | 5.13 µM (inactive) | > 7.23 µM (inactive) | > 10 µM (inactive) | > 7.13 µM (inactive) | > 6.04 µM (inactive) | > 10 µM (inactive) | > 10 µM (inactive) | > 10 µM (inactive) | > 10 µM (inactive) | 1.04 µM (active) | 7.41 µM (inactive) | > 10 µM (inactive) | > 10 µM (inactive) | > 4.8 µM (inactive) | > 4.78 µM (inactive) | > 9.62 µM (inactive)
O=C(c1ccccc1)C1C(C(=O)c2ccccc2)C(c2ccccc2)N(c2ccccc2)C1c1ccccc1 (centres undefined) | > 100 µM (inactive) | > 100 µM (inactive) | – | > 100 µM (inactive) | > 100 µM (inactive) | > 100 µM (inactive) | > 100 µM (inactive) | > 100 µM (inactive) | – | > 100 µM (inactive) | > 100 µM (inactive) | > 100 µM (inactive) | > 100 µM (inactive) | 21.2 µM (inactive) | > 100 µM (inactive) | > 100 µM (inactive) | > 100 µM (inactive) | > 100 µM (inactive) | > 100 µM (inactive) | > 100 µM (inactive)
COc1cc(OCCN(C)C)c2[nH]c(C(=O)N3CC(CCl)c4c3cc(N)c3ccccc43)cc2c1 (centres undefined) | < 0.01 µM (active) | < 0.01 µM (active) | < 0.01 µM (active) | < 0.01 µM (active) | < 0.01 µM (active) | < 0.01 µM (active) | < 0.01 µM (active) | < 0.01 µM (active) | < 0.01 µM (active) | < 0.01 µM (active) | < 0.01 µM (active) | < 0.01 µM (active) | < 0.01 µM (active) | < 0.01 µM (active) | < 0.01 µM (active) | < 0.01 µM (active) | < 0.01 µM (active) | < 0.01 µM (active) | < 0.01 µM (active) | < 0.01 µM (active)
c1ccc(C[n+]2ccc3c(c2)CCCC3)cc1 | > 100 µM (inactive) | > 100 µM (inactive) | 50.9 µM (inactive) | 77.3 µM (inactive) | 39.4 µM (inactive) | > 100 µM (inactive) | 78.7 µM (inactive) | > 100 µM (inactive) | 54.1 µM (inactive) | > 100 µM (inactive) | > 100 µM (inactive) | > 100 µM (inactive) | > 100 µM (inactive) | 65.9 µM (inactive) | > 100 µM (inactive) | 78 µM (inactive) | 84.3 µM (inactive) | 19.6 µM (inactive) | 92.7 µM (inactive) | > 100 µM (inactive)
C[C@]12C(=O)C=CCC1=CC[C@@H]1[C@@H]2[C@H]2CC3(O)C(=O)O[C@@]4(C)[C@H]5C[C@@]6(C)[C@@H]7[C@@]2(O)[C@]1(OC[C@H]6C(=O)O5)O[C@]734 (some centres undefined) | 37.1 µM (inactive) | 28.4 µM (inactive) | 40.1 µM (inactive) | 57.4 µM (inactive) | 24.2 µM (inactive) | 36.6 µM (inactive) | 35.8 µM (inactive) | 37.9 µM (inactive) | 54.7 µM (inactive) | 40.1 µM (inactive) | > 100 µM (inactive) | > 100 µM (inactive) | 43.7 µM (inactive) | 34.8 µM (inactive) | 30.1 µM (inactive) | 41.9 µM (inactive) | 23 µM (inactive) | 50 µM (inactive) | 27.4 µM (inactive) | 20.2 µM (inactive)
CCOC(CNc1nn2c(C)nnc2s1)OCC | > 100 µM (inactive) | > 100 µM (inactive) | > 100 µM (inactive) | > 100 µM (inactive) | > 100 µM (inactive) | > 100 µM (inactive) | > 100 µM (inactive) | > 100 µM (inactive) | > 100 µM (inactive) | > 100 µM (inactive) | > 100 µM (inactive) | – | > 100 µM (inactive) | > 100 µM (inactive) | > 100 µM (inactive) | > 100 µM (inactive) | > 100 µM (inactive) | > 100 µM (inactive) | > 100 µM (inactive) | > 100 µM (inactive)
CC(NC(=O)C(N)CC(=O)O)NC(=O)N(C)C(C)(C)C (centres undefined) | > 100 µM (inactive) | > 100 µM (inactive) | > 100 µM (inactive) | > 100 µM (inactive) | > 100 µM (inactive) | > 100 µM (inactive) | > 100 µM (inactive) | > 100 µM (inactive) | > 100 µM (inactive) | > 100 µM (inactive) | > 100 µM (inactive) | > 100 µM (inactive) | > 100 µM (inactive) | > 100 µM (inactive) | > 100 µM (inactive) | > 100 µM (inactive) | > 100 µM (inactive) | > 100 µM (inactive) | > 100 µM (inactive) | > 100 µM (inactive)
CCOC(=O)c1cc(C2CCN(CC(C)CC)C2=S)c(-c2cc(C)no2)[nH]1 (centres undefined) | 69.3 µM (inactive) | 68.4 µM (inactive) | 41.7 µM (inactive) | > 100 µM (inactive) | > 100 µM (inactive) | > 100 µM (inactive) | > 100 µM (inactive) | > 100 µM (inactive) | 57.9 µM (inactive) | > 100 µM (inactive) | 41.3 µM (inactive) | 17.3 µM (inactive) | 29.6 µM (inactive) | 66.1 µM (inactive) | > 100 µM (inactive) | 41.6 µM (inactive) | > 100 µM (inactive) | 48.4 µM (inactive) | 41.8 µM (inactive) | > 100 µM (inactive)
COC(=O)/C=C\[C@@H]1[C@H](C)N1S(=O)(=O)c1ccc(C)cc1 (some centres undefined) | > 100 µM (inactive) | > 100 µM (inactive) | > 100 µM (inactive) | > 100 µM (inactive) | > 100 µM (inactive) | > 100 µM (inactive) | > 100 µM (inactive) | > 100 µM (inactive) | – | > 100 µM (inactive) | > 100 µM (inactive) | – | > 100 µM (inactive) | > 100 µM (inactive) | > 100 µM (inactive) | > 100 µM (inactive) | > 100 µM (inactive) | > 100 µM (inactive) | > 100 µM (inactive) | > 100 µM (inactive)
CCO/C=N\C1=C(C#N)SC2=N/C(=C\c3ccco3)C(=O)N21 | > 100 µM (inactive) | > 100 µM (inactive) | > 100 µM (inactive) | > 100 µM (inactive) | > 100 µM (inactive) | > 100 µM (inactive) | – | > 100 µM (inactive) | > 100 µM (inactive) | > 100 µM (inactive) | > 100 µM (inactive) | > 100 µM (inactive) | > 100 µM (inactive) | > 100 µM (inactive) | > 100 µM (inactive) | > 100 µM (inactive) | > 100 µM (inactive) | > 100 µM (inactive) | > 100 µM (inactive) | > 100 µM (inactive)
Nc1nc(Nc2ccc(Cl)cc2)sc1C(=O)c1c[nH]c2ccccc12 | 21.4 µM (inactive) | – | 6.78 µM (inactive) | – | 13.4 µM (inactive) | 12.9 µM (inactive) | 6.92 µM (inactive) | 12.4 µM (inactive) | 5.66 µM (inactive) | 17.3 µM (inactive) | 12.4 µM (inactive) | 15.4 µM (inactive) | 17.9 µM (inactive) | 11.6 µM (inactive) | 15.5 µM (inactive) | 14 µM (inactive) | 14.6 µM (inactive) | 12 µM (inactive) | 18.2 µM (inactive) | 9.27 µM (inactive)
O=c1c(Cc2ccc(Cl)cc2)nnc2sc(-c3ccc([N+](=O)[O-])cc3)nn12 | 32.1 µM (inactive) | 35 µM (inactive) | 30.1 µM (inactive) | 45.2 µM (inactive) | 20.7 µM (inactive) | 14.5 µM (inactive) | 16.1 µM (inactive) | 24.7 µM (inactive) | – | 36.9 µM (inactive) | 32.1 µM (inactive) | 21.3 µM (inactive) | 21 µM (inactive) | 21.3 µM (inactive) | 33.5 µM (inactive) | 20.7 µM (inactive) | 15.6 µM (inactive) | – | 29.2 µM (inactive) | 24.3 µM (inactive)
C=CCn1c(=O)c(-c2ccccc2)c(O)c2ccccc21 | > 100 µM (inactive) | > 100 µM (inactive) | > 100 µM (inactive) | > 100 µM (inactive) | > 100 µM (inactive) | > 100 µM (inactive) | > 100 µM (inactive) | > 100 µM (inactive) | 94 µM (inactive) | > 100 µM (inactive) | > 100 µM (inactive) | > 100 µM (inactive) | > 100 µM (inactive) | > 100 µM (inactive) | > 100 µM (inactive) | > 100 µM (inactive) | – | > 100 µM (inactive) | > 100 µM (inactive) | > 100 µM (inactive)
CC[S+]([O-])C(=O)N(O)c1ccc(Cl)cc1 (centres undefined) | 20.8 µM (inactive) | – | – | 85.7 µM (inactive) | – | 15 µM (inactive) | – | 20 µM (inactive) | 32.1 µM (inactive) | – | 24.9 µM (inactive) | 14.5 µM (inactive) | 29.4 µM (inactive) | 1.24 µM (inactive) | 22.3 µM (inactive) | 37.4 µM (inactive) | 15.3 µM (inactive) | 26.4 µM (inactive) | 11.7 µM (inactive) | 19.7 µM (inactive)
